Key:
[1] = Metabolic stability in CD-1 mice liver microsomes; type: in vitro ADME
Description: (§1) Objective: The metabolic stability of the test compound in CD-1 mice and human liver microsomes was determined. […]

[2] = Metabolic stability in human liver microsomes; type: in vitro ADME
Description: as §1

Structure (SMILES): CC1(NC(=O)C(=O)c2c(Cl)c(C(=O)Nc3cc(F)c(F)c(F)c3)c3n2CCC3)CCC(CC(=O)O)CC1 (stereo not drawn) [Compound of formula (I)]
- microsomal CLint at 1 μM ([1]; CD-1, mouse, microsomes): < 9.6 µL/min/mg
- CLint scaled at 1 μM ([1]; mouse, CD-1 mice liver microsomes): < 38 mL/min/kg
- half-life at 1 μM ([1]; mouse, CD-1 mice liver microsomes, 1 μM compound, 0.5 mg/mL): > 2.42 h
- half-life at 1 μM ([2]; Human liver microsomes, 1 μM compound, 0.5 mg/mL): > 2.42 h
- CLint scaled at 1 μM ([2]; human liver microsomes): < 8.6 mL/min/kg
- microsomal CLint at 1 μM ([2]; human, microsomes): < 9.6 µL/min/mg

Source: US20230026869A1, “CRYSTAL FORM OF NUCLEOPROTEIN INHIBITOR AND USE THEREOF” (CHIA TAI TIANQING PHARMACEUTICAL GROUP CO., LTD., priority 2019, published 2023)
